Laboratory results from PubChem BioAssay AID248 (DTP/NCI, 2004).
“And” between values parts separate entries of the source, which are not always exact repeats. Identical values can stand only once. Toxic doses and inconclusive results are not listed.

Test system: L1210 leukemia ip in BDF1 mice, survival T/C
Assay: NCI In Vivo Anticancer Drug Screen. Data for tumor model L1210 Leukemia (intraperitoneal) in B6D2F1 (BDF1) mice
Details: endpoint: mean survival time, higher = longer survival
How it was run: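 Tumor was transplanted into mice, which were then dosed with test compound or vehicle alone. Survival was recorded for each group, and the treated figure was expressed relative to the control figure.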

[1] = dose: 100.0 mg/kg/injection, schedule: Q04DX003 (ip), vehicle: Klucel (hydroxypropylcellulose) (HPC)
[2] = dose: 200.0 mg/kg/injection, schedule: Q04DX003 (ip), vehicle: Klucel (hydroxypropylcellulose) (HPC)
[3] = dose: 400.0 mg/kg/injection, schedule: Q04DX003 (ip), vehicle: Klucel (hydroxypropylcellulose) (HPC)
[4] = dose: 100.0 mg/kg/injection, schedule: Q04DX002 (ip), vehicle: Klucel (hydroxypropylcellulose) (HPC)
[5] = dose: 100.0 mg/kg/injection, schedule: Q01DX001 (ip), vehicle: saline
[6] = dose: 400.0 mg/kg/injection, schedule: Q01DX001 (ip), vehicle: saline
[7] = dose: 100.0 mg/kg/injection, schedule: Q01DX009 (ip), vehicle: saline with Tween-80
[8] = dose: 100.0 mg/kg/injection, schedule: Q04DX003 (ip), vehicle: saline with Tween-80
[9] = dose: 200.0 mg/kg/injection, schedule: Q01DX009 (ip), vehicle: saline with Tween-80
[10] = dose: 200.0 mg/kg/injection, schedule: Q04DX003 (ip), vehicle: saline with Tween-80
[11] = dose: 400.0 mg/kg/injection, schedule: Q01DX009 (ip), vehicle: saline with Tween-80
[12] = dose: 400.0 mg/kg/injection, schedule: Q04DX003 (ip), vehicle: saline with Tween-80

`ClCCCN(CCCCl)c1ccc(C=Nc2cccc(Cl)c2)c(Cl)c1` was tested, and the T/C [1] was 101 % of control, the T/C [2] was 102 % of control and the T/C [3] was 95 % of control.

In the case of `CCC[N+](C)(C)CCCCOCCCC[N+](C)(C)CCC`, the T/C (dose: 3.12 mg/kg/injection, schedule: Q01DX009 (ip), vehicle: saline) is reported as 104 % of control, the T/C (dose: 6.25 mg/kg/injection, schedule: Q01DX009 (ip), vehicle: saline) is reported as 92 % of control and the T/C (dose: 12.5 mg/kg/injection, schedule: Q01DX009 (ip), vehicle: saline) is reported as 103 % of control. The T/C (dose: 12.5 mg/kg/injection, schedule: Q04DX003 (ip), vehicle: saline) was 95 % of control.

With `O=C(O)c1ccc(-c2c3ccc(=O)cc-3oc3cc(O)ccc23)c(C(=O)O)c1` the T/C (dose: 100.0 mg/kg/injection, schedule: Q04DX003 (ip), vehicle: saline) was 97 % of control, the T/C (dose: 200.0 mg/kg/injection, schedule: Q04DX003 (ip), vehicle: saline) was 105 % of control and the T/C (dose: 400.0 mg/kg/injection, schedule: Q04DX003 (ip), vehicle: saline) was 97 % of control.

In the case of `O=C(Nc1ccc(Cl)c(Cl)c1)OC1C=CS(=O)(=O)C1` (configuration not stated), the T/C [1] is reported as 104 % of control, the T/C [2] is reported as 104 % of control and the T/C [3] is reported as 96 % of control.

`CC1(C)OC2OC(COC(=S)Sc3ccc([N+](=O)[O-])cc3[N+](=O)[O-])C3OC(C)(C)OC3C2O1` (configuration not stated) was tested, and the T/C (dose: 6.25 mg/kg/injection, schedule: Q04DX002 (ip), vehicle: saline) was 95 % of control, the T/C (dose: 12.5 mg/kg/injection, schedule: Q04DX002 (ip), vehicle: saline) was 98 % of control and the T/C (dose: 25.0 mg/kg/injection, schedule: Q04DX002 (ip), vehicle: saline) was 106 % of control and 91 % of control. For the same compound, the T/C (dose: 50.0 mg/kg/injection, schedule: Q04DX002 (ip), vehicle: saline) was 120 % of control and the T/C (dose: 100.0 mg/kg/injection, schedule: Q04DX002 (ip), vehicle: saline) was 100 % of control.

`CCOC(=O)CCC(=O)N(C)CCc1ccc(OC)c(OC)c1` was tested, and the T/C (dose: 25.0 mg/kg/injection, schedule: Q04DX002 (ip), vehicle: Klucel (hydroxypropylcellulose) (HPC)) was 117 % of control, the T/C (dose: 50.0 mg/kg/injection, schedule: Q04DX002 (ip), vehicle: Klucel (hydroxypropylcellulose) (HPC)) was 101 % of control and the T/C [4] was 101 % of control.

For `NC(N)=NN=C(CO)CO`, the T/C (dose: 1.0 mg/kg/injection, schedule: Q01DX Z (ip), vehicle: methylcellulose (MC)) was 103 % of control, the T/C (dose: 2.0 mg/kg/injection, schedule: Q01DX Z (ip), vehicle: methylcellulose (MC)) was 111 % of control and the T/C (dose: 4.0 mg/kg/injection, schedule: Q01DX Z (ip), vehicle: methylcellulose (MC)) was 109 % of control. For the same compound, the T/C (dose: 8.0 mg/kg/injection, schedule: Q01DX Z (ip), vehicle: methylcellulose (MC)) was 117 % of control, the T/C (dose: 15.0 mg/kg/injection, schedule: Q01DX Z (oral), vehicle: methylcellulose (MC)) was 89 % of control and the T/C (dose: 30.0 mg/kg/injection, schedule: Q01DX Z (ip), vehicle: methylcellulose (MC)) was 172 % of control. The T/C (dose: 30.0 mg/kg/injection, schedule: Q01DX Z (ip), vehicle: saline) was 110 % of control, the T/C (dose: 30.0 mg/kg/injection, schedule: Q01DX Z (oral), vehicle: methylcellulose (MC)) was 102 % of control and the T/C (dose: 60.0 mg/kg/injection, schedule: Q01DX Z (ip), vehicle: saline) was 108 % of control. The T/C (dose: 60.0 mg/kg/injection, schedule: Q01DX Z (oral), vehicle: methylcellulose (MC)) was 93 % of control, the T/C (dose: 120.0 mg/kg/injection, schedule: Q01DX Z (ip), vehicle: saline) was 103 % of control and the T/C (dose: 120.0 mg/kg/injection, schedule: Q01DX Z (oral), vehicle: methylcellulose (MC)) was 100 % of control. The T/C (dose: 120.0 mg/kg/injection, schedule: Q01DX Z (oral), vehicle: saline) was 100 % of control, the T/C (dose: 240.0 mg/kg/injection, schedule: Q01DX Z (oral), vehicle: saline) was 100 % of control and the T/C (dose: 480.0 mg/kg/injection, schedule: Q01DX Z (oral), vehicle: saline) was 101 % of control. For the same compound, the T/C (dose: 960.0 mg/kg/injection, schedule: Q01DX Z (oral), vehicle: saline) was 101 % of control.

For `Cc1ccccc1/C=N/Nc1nnc(N/N=C/c2ccccc2C)c2ccccc12`, the T/C (dose: 100.0 mg/kg/injection, schedule: Q01DX001 (ip), vehicle: carboxymethylcellulose (CMC)) was 91 % of control, the T/C (dose: 200.0 mg/kg/injection, schedule: Q01DX001 (ip), vehicle: carboxymethylcellulose (CMC)) was 109 % of control and the T/C (dose: 400.0 mg/kg/injection, schedule: Q01DX001 (ip), vehicle: carboxymethylcellulose (CMC)) was 95 % of control.

With `COC(=O)C1CCC2(C)C=CC(=O)C(C)C2C1` (configuration not stated) the T/C (dose: 75.0 mg/kg/injection, schedule: Q04DX003 (ip), vehicle: saline) was 100 % of control, the T/C (dose: 150.0 mg/kg/injection, schedule: Q04DX003 (ip), vehicle: saline) was 100 % of control and the T/C (dose: 300.0 mg/kg/injection, schedule: Q04DX003 (ip), vehicle: saline) was 96 % of control.

`CCC1([N+](=O)[O-])COP(=O)(OC(=O)c2ccco2)OC1` (configuration not stated) was tested, and the T/C [5] was 97 % of control, the T/C (dose: 200.0 mg/kg/injection, schedule: Q01DX001 (ip), vehicle: saline) was 96 % of control and the T/C [6] was 96 % of control.

`O=C(Nc1cccc([N+](=O)[O-])c1)Oc1ccc(-c2ccccc2)cc1` was tested, and the T/C [7] was 101 % of control and 103 % of control, the T/C (dose: 100.0 mg/kg/injection, schedule: Q04DX002 (ip), vehicle: saline with Tween-80) was 97 % of control and 111 % of control and the T/C [8] was 93 % of control. For the same compound, the T/C [9] was 100 % of control and 101 % of control, the T/C (dose: 200.0 mg/kg/injection, schedule: Q04DX002 (ip), vehicle: saline with Tween-80) was 96 % of control and 104 % of control and the T/C [10] was 93 % of control. The T/C [11] was 94 % of control, the T/C (dose: 400.0 mg/kg/injection, schedule: Q04DX002 (ip), vehicle: saline with Tween-80) was 93 % of control and 103 % of control and the T/C [12] was 102 % of control.

`O=[N+]([O-])c1ccc(Oc2cc(Cl)c(Cl)cc2Cl)nc1` was tested, and the T/C [7] was 101 % of control, the T/C [8] was 104 % of control and the T/C [9] was 103 % of control. For the same compound, the T/C [10] was 102 % of control, the T/C [11] was 100 % of control and the T/C [12] was 106 % of control.

`CC(CC(=O)C[N+](=O)[O-])=Nc1ccccc1` was tested, and the T/C [4] was 90 % of control, the T/C (dose: 200.0 mg/kg/injection, schedule: Q04DX002 (ip), vehicle: Klucel (hydroxypropylcellulose) (HPC)) was 104 % of control and the T/C (dose: 400.0 mg/kg/injection, schedule: Q04DX002 (ip), vehicle: Klucel (hydroxypropylcellulose) (HPC)) was 97 % of control.

`Cc1n[nH]c(=O)[nH]c1=O` was tested, and the T/C (dose: 3.0 mg/kg/injection, schedule: Q01DX009 (ip), vehicle: saline) was 95 % of control, the T/C (dose: 6.0 mg/kg/injection, schedule: Q01DX009 (ip), vehicle: saline) was 93 % of control and the T/C (dose: 12.0 mg/kg/injection, schedule: Q01DX009 (ip), vehicle: saline) was 93 % of control. For the same compound, the T/C (dose: 24.0 mg/kg/injection, schedule: Q01DX009 (ip), vehicle: saline) was 93 % of control, the T/C (dose: 48.0 mg/kg/injection, schedule: Q01DX009 (ip), vehicle: saline) was 97 % of control and the T/C (dose: 67.5 mg/kg/injection, schedule: Q01DX Z (ip), vehicle: saline) was 96 % of control. The T/C (dose: 125.0 mg/kg/injection, schedule: Q01DX Z (ip), vehicle: saline) was 105 % of control, the T/C (dose: 200.0 mg/kg/injection, schedule: Q01DX001 (ip), vehicle: acetone) was 97 % of control and the T/C (dose: 250.0 mg/kg/injection, schedule: Q01DX Z (ip), vehicle: saline) was 96 % of control. For the same compound, the T/C (dose: 400.0 mg/kg/injection, schedule: Q01DX001 (ip), vehicle: acetone) was 103 % of control, the T/C (dose: 500.0 mg/kg/injection, schedule: Q01DX Z (ip), vehicle: saline) was 105 % of control and the T/C (dose: 800.0 mg/kg/injection, schedule: Q01DX001 (ip), vehicle: acetone) was 98 % of control.

In the case of `CCCCCCCCCCCCCCCCCCNC(=S)Nc1ccc(S(=O)(=O)c2ccc(NC(=S)NCCCCCCCCCCCCCCCCCC)cc2)cc1`, the T/C (dose: 50.0 mg/kg/injection, schedule: Q01DX001 (ip), vehicle: saline) is reported as 98 % of control, the T/C [5] is reported as 87 % of control and the T/C [6] is reported as 106 % of control.

For `CCCCCCCCCCCCCCCCCCNC(=O)N1CCCCC1C` (configuration not stated), the T/C (dose: 100.0 mg/kg/injection, schedule: Q01DX009 (ip), vehicle: Klucel (hydroxypropylcellulose) (HPC)) was 89 % of control, the T/C (dose: 200.0 mg/kg/injection, schedule: Q01DX009 (ip), vehicle: Klucel (hydroxypropylcellulose) (HPC)) was 96 % of control and the T/C (dose: 400.0 mg/kg/injection, schedule: Q01DX009 (ip), vehicle: Klucel (hydroxypropylcellulose) (HPC)) was 100 % of control.
